Laboratory results taken from PMC10221314 (Pharmaceuticals, 2023).

Molecular target: T1, FXR (Homo sapiens, UniProt Q96RI1)
T1 construct: a fusion plasmid of Gal4 DBD-NR-LBD, which included PPARα, PPARβ, PPARγ, RXRα, RXRβ, RXRγ, LXRα, LXRβ, GPBAR, PXR, and FXR; expressed in transfected cells; host or cells: HEK-293T
T1 sequence (Q96RI1 262-486 limits assumed): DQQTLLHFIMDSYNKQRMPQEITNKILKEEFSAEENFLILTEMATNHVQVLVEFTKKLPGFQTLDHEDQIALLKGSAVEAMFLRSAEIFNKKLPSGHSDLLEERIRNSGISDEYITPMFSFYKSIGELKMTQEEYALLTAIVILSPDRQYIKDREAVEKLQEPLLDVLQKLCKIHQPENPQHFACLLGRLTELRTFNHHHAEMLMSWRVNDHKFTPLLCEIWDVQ
Experiment: NR selectivity one-hybrid assay in HEK-293T cells (FXR)
Format: cell-based
Conditions: FXR agonist CDCA (50 μM)
Protocol: To assess the compound’s specificity, the mammalian one-hybrid assay was conducted. In this assay, HEK-293T cells were co-transfected with a fusion plasmid of Gal4 DBD-NR LBD (comprising RXRα, RXRβ, RXRγ, PPARα, PPARβ, PPARγ, LXRα, LXRβ, GPBAR, and PXR) and the UAS-TK-Luc reporter, followed by treatment with various concentrations of the compound. The positive control consisted of the corresponding nuclear receptor agonist, and the concentration used in the experiment was set to the EC50 of the agonist.
Figure 3 Compound 10b selectively antagonized FXR. The impact of compound 10b on various NRs was evaluated using a […] one-hybrid assay in HEK-293T cells. The cells were transiently co-transfected with a fusion plasmid of Gal4 DBD-NR-LBD, which included PPARα, PPARβ, PPARγ, RXRα, RXRβ, RXRγ, LXRα, LXRβ, GPBAR, PXR, and FXR, in combination with the UAS-TK-Luc reporter. […] The values are expressed as the means ± SE of three independent experiments. *: p < 0.05 vs. RA (relative agonist).

Q: For `CC1(C)CCC2(C(=O)O)CCC3(C)C(C(OC(=O)CCC(NC(=O)OC(C)(C)C)C(=O)OC(C)(C)C)CC4C5(C)CCC(O)C(C)(C)C5CCC43C)C2C1` [Compound 10b, 3β-hydroxy-12β-(4′-((tert-butoxycarbonyl)amide)-5′-(tert-butoxy)-L-glutamte)oxy-13H-olean-28-oic acid], which “antagonistic effects against FXR” value is on record?
A: The value was over 90%.
